Laboratory results taken from patent US7138414B2, “Heterocyclically substituted benzoylureas, process for their preparation and their use as pharmaceuticals” (Sanofi-Aventis Deutschland GmbH, priority 2002, dated 2006).

Biological target: T1, human glycogen phosphorylase a (Homo sapiens, UniProt P06737)
T1 sequence (P06737 2-847 limits assumed): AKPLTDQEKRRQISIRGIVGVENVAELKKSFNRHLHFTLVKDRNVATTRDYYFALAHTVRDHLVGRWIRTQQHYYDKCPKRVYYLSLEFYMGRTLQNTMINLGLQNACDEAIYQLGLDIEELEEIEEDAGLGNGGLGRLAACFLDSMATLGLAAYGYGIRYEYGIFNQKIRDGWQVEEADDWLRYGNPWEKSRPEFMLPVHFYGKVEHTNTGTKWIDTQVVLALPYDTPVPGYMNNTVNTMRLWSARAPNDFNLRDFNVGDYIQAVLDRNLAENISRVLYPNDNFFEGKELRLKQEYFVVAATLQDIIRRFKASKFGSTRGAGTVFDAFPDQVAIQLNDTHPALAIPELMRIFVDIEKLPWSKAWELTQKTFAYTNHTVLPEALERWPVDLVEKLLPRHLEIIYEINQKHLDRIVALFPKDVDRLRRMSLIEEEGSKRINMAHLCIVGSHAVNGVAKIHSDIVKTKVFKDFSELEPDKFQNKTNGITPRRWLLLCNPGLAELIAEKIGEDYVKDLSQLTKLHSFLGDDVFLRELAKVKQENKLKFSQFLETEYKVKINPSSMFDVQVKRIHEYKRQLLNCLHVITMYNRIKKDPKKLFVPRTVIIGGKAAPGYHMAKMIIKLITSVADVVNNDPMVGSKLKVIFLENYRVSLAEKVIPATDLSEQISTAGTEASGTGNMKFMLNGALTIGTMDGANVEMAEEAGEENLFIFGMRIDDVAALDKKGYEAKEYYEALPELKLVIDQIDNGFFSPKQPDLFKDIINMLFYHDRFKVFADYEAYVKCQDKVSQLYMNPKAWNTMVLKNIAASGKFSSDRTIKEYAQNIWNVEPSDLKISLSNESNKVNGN
Assay: Glycogen phosphorylase a activity test (reverse direction, release of inorganic phosphate)
Type: biochemical
Details: 10 μM test substance; duplicate determinations; 40 min at room temperature
Procedure: Glycogen Phophorylase a Activity Test
All reactions were carried out as duplicate determinations in 96-well microtiter plates (half area plates, Costar No. 3696), and the change in absorption as a consequence of the formation of the reaction product was measured at the wavelength specified below in a Multiskan Ascent Elisa Reader (Lab Systems, Finland).
In order to measure the GPa enzyme activity in the reverse direction, the conversion of glucose 1-phosphate to glycogen and inorganic phosphate was measured by the general method of Engers et al. (Engers H D, Shechosky S, Madsen N B, Can J Biochem 1970 July;48(7):746–754) with the following modifications: human glycogen phosphorylase a (for example containing 0.76 mg of protein/ml (Aventis Pharma Deutschland GmbH), dissolved in buffer solution E (25 mM β-glycerophosphate, pH 7.0, 1 mM EDTA and 1 mM dithiothreitol) was diluted to a concentration of 10 μg of protein/ml with buffer T (50 mM Hepes, pH 7.0, 100 mM KCl, 2.5 mM EDTA, 2.5 mM MgCl26H2O) and addition of 5 mg/ml of glycogen. Test substances were prepared as a 10 mM solution in DMSO and diluted to 50 μM with buffer solution T. To 10 μl of this solution were added 10 μl of 37.5 mM glucose dissolved in buffer solution T and 5 mg/ml of glycogen, and also 10 μl of a solution of human glycogen phosphorylase a (10 μg of protein/ml) and 20 μl of 2.5 mM glucose 1-phosphate. The base value of the activity of glycogen phosphorylase a in the absence of test substance was determined by adding 10 μl of buffer solution T (0.1% DMSO). The mixture was incubated at room temperature for 40 minutes and the released inorganic phosphate was determined by means of the general method of Drueckes et al. (al (Drueckes P, Schinzel R, Palm D, Anal Biochem 1995 Sep. 1;230(1):173–177) with the following modifications: 50 μl of a stop solution of 7.3 mM of ammonium molybdate, 10.9 mM of zinc acetate, 3.6% of ascorbic acid, 0.9% of SDS are added to 50 μl of the enzyme mixture. After 60 minutes of incubation at 45° C., the absorption was measured at 820 nm. To determine the background absorption, the stop solution was added immediately after the addition of the glucose 1-phosphate solution in a separate reaction. This test was carried out at a concentration of 10 μM of the test substance, in order to determine the respective inhibition of glycogen phosphorylase a by the test substance in vitro.

Q: Which “% inhibition at 10 μM” value does the source give for `O=C(NC(=O)c1cc(F)c(F)cc1Cl)Nc1ccc(-n2cncn2)cc1F` [Example 1c, 1-(2-chloro-4,5-difluorobenzoyl)-3-(2-fluoro-4-[1,2,4]triazol-1-ylphenyl)urea] here?
A: Its value is 94%.

Q: With `COc1cc(-c2nnc(C)[nH]2)ccc1NC(=O)NC(=O)c1ccc(F)cc1Cl` [Example 2c, 1-(2-chloro-4-fluorobenzoyl)-3-[2-methoxy-4-(5-methyl-4H-[1,2,4]triazol-3-yl)-phenyl]urea] as the molecule, how does the “% inhibition at 10 μM” value read?
A: Its value is 94%.

Q: `COc1cc(-c2nnc(C)[nH]2)ccc1NC(=O)NC(=O)c1cc(F)c(F)cc1Cl` [Example 3, 1-(2-chloro-4,5-difluorobenzoyl)-3-[2-methoxy-4-(5-methyl-4H-[1,2,4]triazol-3-yl)-phenyl]urea] was tested. Which “% inhibition at 10 μM” value did it give?
A: Its value is 100%.

Q: With `COc1cc(-c2nnc(CC(=O)O)[nH]2)ccc1NC(=O)NC(=O)c1ccc(F)cc1Cl` [Example 4d, (5-(4-(3-(2-chloro-4-fluorobenzoyl)ureido)-3-methoxyphenyl)-4H-[1,2,4]triazol-3-yl)acetic acid] as the molecule, how does the “% inhibition at 10 μM” value read?
A: The value was 90%.

Q: With `Cc1nnc(-c2ccccc2NC(=O)NC(=O)c2cc(F)c(F)cc2Cl)n1-c1ccccc1C(=O)O` [Example 5e, 2-(3-{2-[3-(2-chloro-4,5-difluorobenzoyl)ureido]phenyl}-5-methyl-[1,2,4]triazol-4-yl)benzoic acid] as the molecule, how does the “% inhibition at 10 μM” value read?
A: Its value is 9%.

Q: With `Cc1nnc(-c2ccc(Cl)c(NC(=O)NC(=O)c3cc(F)c(F)cc3Cl)c2)[nH]1` [Example 6d, 1-(2-chloro-4,5-difluorobenzoyl)-3-[2-chloro-5-(5-methyl-4H-[1,2,4]triazol-3-yl)phenyl]urea] as the molecule, how does the “% inhibition at 10 μM” value read?
A: The value was 100%.

Q: `O=C(NC(=O)c1cc(F)c(F)cc1Cl)Nc1cc(-c2nnc[nH]2)ccc1Cl` [Example 6e, 1-(2-chloro-4,5-difluorobenzoyl)-3-[2-chloro-5-(4H-[1,2,4]triazol-3-yl)phenyl]urea] was tested. Which “% inhibition at 10 μM” value did it give?
A: The value was 100%.

Q: For `O=C(NC(=O)c1ccc(F)cc1Cl)Nc1ccc(-c2nnn[nH]2)cc1Cl` [Example 7c, 1-(2-chloro-4-fluorobenzoyl)-3-[2-chloro-4-(1H-tetrazol-5-yl)phenyl]urea], which “% inhibition at 10 μM” value is on record?
A: Its value is 100%.

Q: How did the “% inhibition at 10 μM” value turn out when `O=C(NC(=O)c1cc(F)c(F)cc1Cl)Nc1ccc(-c2nnn[nH]2)cc1Cl` [Example 7d, 1-(2-chloro-4,5-difluorobenzoyl)-3-[2-chloro-4-(1H-tetrazol-5-yl)phenyl)urea] was run?
A: Its value is 100%.

Q: How did the “% inhibition at 10 μM” value turn out when `O=C(NC(=O)c1ccc(F)cc1Cl)Nc1ccc(-c2nnn[nH]2)cc1OC(F)(F)F` [Example 7e, 1-(2-chloro-4-fluorobenzoyl)-3-[4-(1H-tetrazol-5-yl)-2-trifluoromethoxyphenyl]-urea] was run?
A: The value was 100%.

Q: With `O=C(NC(=O)c1cc(F)c(F)cc1Cl)Nc1ccc(-c2nnn[nH]2)cc1OC(F)(F)F` [Example 7f] as the molecule, how does the “% inhibition at 10 μM” value read?
A: The value was 100%.

Q: With `COc1cc(-c2nnc(O)o2)ccc1NC(=O)NC(=O)c1ccc(F)cc1Cl` [Example 8c, 1-(2-chloro-4-fluorobenzoyl)-3-[4-(5-hydroxy-[1,3,4]oxadiazol-2-yl)-2-methoxyphenyl]urea] as the molecule, how does the “% inhibition at 10 μM” value read?
A: Its value is 96%.

Q: Which “% inhibition at 10 μM” value does the source give for `COc1nn(-c2ccc(NC(=O)NC(=O)c3ccc(F)cc3Cl)c(OC)c2)c(=O)o1` [Example 9e, 1-(2-chloro-4-fluorobenzoyl)-3-(2-methoxy-4-(5-methoxy-2-oxo-3H-[1,3,4]-oxadiazol-3-yl)phenyl)urea] here?
A: Its value is 20%.

Q: For `Cc1nnc(-c2ccc(NC(=O)NC(=O)c3ccc(F)cc3Cl)c(Cl)c2)o1` [Example 9g, 1-(2-chloro-4-fluorobenzoyl)-3-[2-chloro-4-(5-methyl-[1,3,4]oxadiazol-2-yl)phenyl]urea], which “% inhibition at 10 μM” value is on record?
A: The value was 79%.

Q: With `Nc1nnc(-c2ccccc2NC(=O)NC(=O)c2cc(F)c(F)cc2Cl)o1` [Example 10c, 1-[2-(5-amino-[1,3,4]oxadiazol-2-yl)phenyl]-3-(2-chloro-4,5-difluorobenzoyl)urea] as the molecule, how does the “% inhibition at 10 μM” value read?
A: The value was 100%.

Q: How did the “% inhibition at 10 μM” value turn out when `O=C(NC(=O)c1cc(F)c(F)cc1Cl)Nc1ccc(-c2noc(=O)[nH]2)cc1OC(F)(F)F` [Example 11d, 1-(2-chloro-4,5-difluorobenzoyl)-3-[4-(5-oxo-4,5-dihydro-[1,2,4]oxadiazol-3-yl)-2-trifluoromethoxyphenyl]urea] was run?
A: Its value is 100%.

Q: How did the “% inhibition at 10 μM” value turn out when `Cc1cc(=O)n(-c2ccc(NC(=O)NC(=O)c3ccc(F)cc3Cl)c(C)c2)[nH]1` [Example 12c, 1-(2-chloro-4-fluorobenzoyl)-3-[2-methyl-4-(3-methyl-5-oxo-2,5-dihydropyrazol-1-yl)phenyl]urea] was run?
A: Its value is 85%.

Q: How did the “% inhibition at 10 μM” value turn out when `O=C(NC(=O)c1cc(F)c(F)cc1Cl)Nc1ccccc1-c1nc2ccccc2[nH]1` [Example 13a, 1-[2-(1H-benzoimidazol-2-yl)phenyl]-3-(2-chloro-4,5-difluorobenzoyl)urea] was run?
A: Its value is 48%.

Q: For `Cc1nnc(-c2ccc(Cl)c(NC(=O)NC(=O)c3cc(F)c(F)cc3Cl)c2)[nH]c1=O` [Example 14e, 1-(2-chloro-4,5-difluorobenzoyl)-3-[2-chloro-5-(6-methyl-5-oxo-4,5-dihydro-[1,2,4]triazin-3-yl)phenyl]urea], which “% inhibition at 10 μM” value is on record?
A: Its value is 97%.

Q: How did the “% inhibition at 10 μM” value turn out when `Cc1nnc(-c2ccc(Cl)c(NC(=O)NC(=O)c3cc(F)c(F)cc3Cl)c2)nc1C` [Example 14f, 1-(2-chloro-4,5-difluorobenzoyl)-3-[2-chloro-5-(5,6-dimethyl-[1,2,4]triazin-3-yl)phenyl]urea] was run?
A: The value was 100%.

Q: With `NC(=O)C1CCCN(c2ccc(F)cc2NC(=O)NC(=O)c2ccc(F)cc2Cl)C1` (stereo not shown) [Example 19] as the molecule, how does the “% inhibition at 10 μM” value read?
A: The value was 1.0%.

Q: Which “% inhibition at 10 μM” value does the source give for `O=C(NC(=O)c1ccc(F)cc1Cl)Nc1cc(F)ccc1N1CCC(C(=O)O)CC1` [Example 20] here?
A: The value was 0.04%.

Q: `CS(=O)(=O)c1ccc(N2CCCC(C(=O)O)C2)c(NC(=O)NC(=O)c2cc(F)c(F)cc2Cl)c1` (stereo not shown) [Example 21] was tested. Which “% inhibition at 10 μM” value did it give?
A: Its value is 0.3%.

Q: `CS(=O)(=O)c1ccc(N2CCCC(C(=O)O)C2)c(NC(=O)NC(=O)c2ccc(F)cc2Cl)c1` (stereo not shown) [Example 22] was tested. Which “% inhibition at 10 μM” value did it give?
A: The value was 1.1%.

Q: `O=C(NC(=O)c1cc(F)c(F)cc1Cl)Nc1cc(C(F)(F)F)ccc1N1CCCC(C(=O)O)C1` (stereo not shown) [Example 23] was tested. Which “% inhibition at 10 μM” value did it give?
A: Its value is 0.03%.

Q: `O=C(NC(=O)c1ccc(F)cc1Cl)Nc1cc(C(F)(F)F)ccc1N1CCCC(C(=O)O)C1` (stereo not shown) [Example 24] was tested. Which “% inhibition at 10 μM” value did it give?
A: The value was 0.09%.

Q: Which “% inhibition at 10 μM” value does the source give for `Cc1ccc(NC(=O)NC(=O)c2ccc(F)cc2Cl)c(N2CCCC(C(=O)O)C2)c1` (stereo not shown) [Example 25] here?
A: Its value is 0.06%.

Q: `Cc1ccc(NC(=O)NC(=O)c2cc(F)c(F)cc2Cl)c(N2CCCC(C(=O)O)C2)c1` (stereo not shown) [Example 26] was tested. Which “% inhibition at 10 μM” value did it give?
A: Its value is 0.04%.

Q: Which “% inhibition at 10 μM” value does the source give for `Cc1ccc(N2CCCC(C(=O)O)C2)c(NC(=O)NC(=O)c2ccc(F)cc2Cl)c1` (stereo not shown) [Example 28] here?
A: Its value is 0.04%.

Q: With `O=C(NC(=O)c1ccc(F)cc1Cl)Nc1cc(Cl)ccc1N1CCCC(C(=O)O)C1` (stereo not shown) [Example 32] as the molecule, how does the “% inhibition at 10 μM” value read?
A: Its value is 0.03%.

Q: Which “% inhibition at 10 μM” value does the source give for `COC(=O)c1ccc(N2CCCC(C(=O)O)C2)c(NC(=O)NC(=O)c2cc(F)c(F)cc2Cl)c1` (stereo not shown) [Example 33] here?
A: Its value is 1.0%.

Q: For `COC(=O)c1ccc(N2CCCC(C(=O)O)C2)c(NC(=O)NC(=O)c2ccc(F)cc2Cl)c1` (stereo not shown) [Example 34], which “% inhibition at 10 μM” value is on record?
A: The value was 3.2%.

Q: For `CCOC(=O)C1CCCN(c2ccc(F)cc2NC(=O)NC(=O)c2cc(F)c(F)cc2Cl)C1` (stereo not shown) [Example 35], which “% inhibition at 10 μM” value is on record?
A: The value was 0.3%.

Q: With `CCOC(=O)C1CCCN(c2ccc(F)cc2NC(=O)NC(=O)c2ccc(F)cc2Cl)C1` (stereo not shown) [Example 36] as the molecule, how does the “% inhibition at 10 μM” value read?
A: Its value is 0.3%.
